Laboratory results as given in patent US20200267980A1, “Herbicidally Active Pyridyl-/Pyrimidyl-Pyrimidine Derivatives” (Syngenta Participations AG, priority 2017, published 2020).

Experiments:
Assay type in all cases: in vivo
[1] = test system: Avena fatua (AVEFA); assay: Post-emergence herbicidal activity, glasshouse pot test; details: 1000 g/ha, post-emergence spray after 8 days cultivation, evaluated after 13 days, damage score 0-5
Protocol: (§1) Seeds of a variety of test species were sown in standard soil in pots: Triticum aestivium (TRZAW), Avena fatua (AVEFA), Alopecurus myosuroides (ALOMY), Echinochloa crus-galli (ECHCG), Lolium perenne (LOLPE), and Setaria faberi (SETFA). After 8 days cultivation (post-emergence) under controlled conditions in a glasshouse (at 24/16° C., day/night; 14 hours light; 65% humidity), the plants were sprayed with an aqueous spray solution derived from the formulation of the technical active ingredient in acetone/water (50:50) solution containing 0.5% Tween 20 (polyoxyethelyene sorbitan monolaurate, CAS RN 9005-64-5). The test plants were then grown in a glasshouse under controlled conditions (at 24/16° C., day/night; 14 hours light; 65% humidity) and watered twice daily. After 13 days, the test was evaluated (5=total damage to plant; 0=no damage to plant).

[2] = test system: Echinochloa crus-galli (ECHCG); assay: as above; set-up: key: 5=total damage to plant; 0=no damage to plant; details: 1000 g/ha, post-emergence spray after 8 days cultivation, evaluated after 13 days, damage score 0-5
Protocol: as §1

[3] = test system: Lolium perenne (LOLPE); assay: as above; set-up: key: 5=total damage to plant; 0=no damage to plant; details: 1000 g/ha, post-emergence spray after 8 days cultivation, evaluated after 13 days, damage score 0-5
Protocol: as §1

[4] = test system: Triticum aestivium (TRZAW); assay: as above; set-up: key: 5=total damage to plant; 0=no damage to plant; details: 1000 g/ha, post-emergence spray after 8 days cultivation, evaluated after 13 days, damage score 0-5
Protocol: as §1

[5] = test system: Alopecurus myosuroides (ALOMY); assay: as above; set-up: key: 5=total damage to plant; 0=no damage to plant; details: 1000 g/ha, post-emergence spray after 8 days cultivation, evaluated after 13 days, damage score 0-5
Protocol: as §1

[6] = test system: Echinochloa crus-galli (ECHCG); assay: Pre-emergence herbicidal activity, glasshouse pot test; set-up: key: 5=total damage to plant; 0=no damage to plant; details: 1000 g/ha, pre-emergence spray, evaluated after 13 days, damage score 0-5
Protocol: as §1, with “After” for “After 8 days”, “for one day (pre-emergence)” for “(post-emergence)”

[7] = test system: Lolium perenne (LOLPE); assay: as above; set-up: key: 5=total damage to plant; 0=no damage to plant; details: 1000 g/ha, pre-emergence spray, evaluated after 13 days, damage score 0-5
Protocol: as §1, with “After” for “After 8 days”, “for one day (pre-emergence)” for “(post-emergence)”

[8] = test system: Triticum aestivium (TRZAW); assay: as above; set-up: key: 5=total damage to plant; 0=no damage to plant; details: 1000 g/ha, pre-emergence spray, evaluated after 13 days, damage score 0-5
Protocol: as §1, with “After” for “After 8 days”, “for one day (pre-emergence)” for “(post-emergence)”

[9] = test system: Alopecurus myosuroides (ALOMY); assay: as above; set-up: key: 5=total damage to plant; 0=no damage to plant; details: 1000 g/ha, pre-emergence spray, evaluated after 13 days, damage score 0-5
Protocol: as §1, with “After” for “After 8 days”, “for one day (pre-emergence)” for “(post-emergence)”

[10] = test system: Setaria faberi (SETFA); assay: as above; set-up: key: 5=total damage to plant; 0=no damage to plant; details: 1000 g/ha, pre-emergence spray, evaluated after 13 days, damage score 0-5
Protocol: as §1, with “After” for “After 8 days”, “for one day (pre-emergence)” for “(post-emergence)”

[11] = test system: Avena fatua (AVEFA); assay: as above; set-up: key: 5=total damage to plant; 0=no damage to plant; details: 1000 g/ha, pre-emergence spray, evaluated after 13 days, damage score 0-5
Protocol: as §1, with “After” for “After 8 days”, “for one day (pre-emergence)” for “(post-emergence)”

[12] = test system: Setaria faberi (SETFA); assay: Post-emergence herbicidal activity, glasshouse pot test; set-up: key: 5=total damage to plant; 0=no damage to plant; details: 1000 g/ha, post-emergence spray after 8 days cultivation, evaluated after 13 days, damage score 0-5
Protocol: as §1

SMILES | Control of weed species after post-emergence application, AVEFA [1] | Control of weed species after post-emergence application, ECHCG [2] | Control of weed species after post-emergence application, LOLPE [3] | Control of weed species after post-emergence application, TRAZW [4] | Control of weed species after post-emergence application, ALOMY [5] | Control of weed species after pre-emergence application, ECHCG [6] | Control of weed species after pre-emergence application, LOLPE [7] | Control of weed species after pre-emergence application, TRAZW [8] | Control of weed species after pre-emergence application, ALOMY [9] | Control of weed species after pre-emergence application, SETFA [10] | Control of weed species after pre-emergence application, AVEFA [11] | Control of weed species after post-emergence application, SETFA [12]
Cc1nc(-c2cncnc2)ncc1NC(=O)C(C)C [Compound F1, 2-methyl-N-(4-methyl-2-pyrimidin-5-yl-pyrimidin-5-yl)propanamide] | 3 | 4 | 1 | 0 | 0 | 3 | 0 | 0 | 0 | 5 | 2 | –
Cc1nc(-c2cncnc2)ncc1N(C(=O)C(C)C)C(=O)C(C)C [Compound F2, 2-methyl-N-(2-methylpropanoyl)-N-(4-methyl-2-pyrimidin-5-yl-pyrimidin-5-yl)propanamide] | 3 | 5 | 1 | 0 | 0 | 4 | 0 | 0 | 0 | 5 | 2 | –
COCC(=O)Nc1cnc(-c2cncc(F)c2)nc1C(F)(F)F [Compound F3] | 4 | 4 | 2 | 1 | 0 | 3 | 1 | 0 | 0 | 3 | 2 | 4
CCC(=O)Nc1cnc(-c2cncc(F)c2)nc1C(F)(F)F [Compound F4] | 4 | 4 | 2 | 1 | 0 | 3 | 0 | 0 | 1 | 4 | 3 | 4
CC(=O)Nc1cnc(-c2cncc(F)c2)nc1C(F)(F)F [Compound F11] | 3 | 4 | 2 | 1 | 1 | 4 | 1 | 0 | 0 | – | 2 | 5
CCCCC(=O)Nc1cnc(-c2cncc(F)c2)nc1C(F)(F)F [Compound F12] | 3 | 4 | 2 | 0 | 0 | 3 | 1 | 0 | 0 | – | 2 | 5
CC(C)C(=O)Nc1cnc(-c2cncc(F)c2)nc1C(F)(F)F [Compound F13] | 3 | 5 | 2 | 0 | 0 | 4 | 1 | 0 | 0 | – | 2 | 5
O=C(Nc1cnc(-c2cncc(F)c2)nc1C(F)(F)F)C1CC1 [Compound F14, N-[2-(5-fluoro-3-pyridyl)-4-(trifluoromethyl)-pyrimidin-5-yl]cyclopropanecarboxamide] | 3 | 5 | 4 | 1 | 0 | 4 | 2 | 0 | 0 | – | 2 | 5
COCCC(=O)Nc1cnc(-c2cncc(F)c2)nc1C(F)(F)F [Compound F15] | 3 | 4 | 2 | 1 | 0 | 4 | 0 | 0 | 0 | – | 2 | 5
